Measured values reported in patent publication US11116771B2, “G protein-coupled receptor (GPCR) modulation by imipridones” (Oncoceutics, Inc., priority 2016, dated 2021).
≈ marks a conversion by molar mass, not a printed value. Entries after “also recorded” stand apart in the source; their conditions may differ. Where two headings read alike, the source gives them in different places.

Tests used:
human cancer cells = assay: Viability of human cancer cells at 72 hours post-treatment; type: cell-based; conditions: for Relative Potency*: relative to the potency of ONC201, viability of human cancer cells at 72 hours post-treatment
[1] = tested on: NCI60 cancer cell line panel; assay: NCI60 cancer cell line panel; type: cell-based; conditions: NCI60 panel (FIG. 16)
[2] = tested on: Staphylococcus aureus ATCC 29213; assay: MIC by micro-broth dilution, S. aureus ATCC 29213; type: cell-based
[3] = tested on: Staphylococcus aureus ATCC 33591; assay: MIC by micro-broth dilution, S. aureus ATCC 33591; type: cell-based
[4] = tested on: Staphylococcus aureus ATCC 700699; assay: MIC by micro-broth dilution, S. aureus ATCC 700699; type: cell-based
normal cells = assay: In vitro toxicity to normal cells; type: cell-based; conditions: FIG. 33
[5] = Mouse tolerability (non-GLP oral single dose / MTD study); type: in vivo; conditions: in vivo; mouse; non-GLP oral single dose study / MTD study
Protocol: ONC212 25 mg/kg represents NOAEL in mouse and rat non-GLP oral single dose studies which is also the efficacious dose in mouse xenograft studies. […].
Dual targeting of DRD2/3 and GPR132/91 represents a novel strategy for anti-cancer efficacy without toxicity. […] […]. […] […].

[6] = tested on: DRD2 (short and long isoforms); assay: β-arrestin recruitment GPCR reporter assay, DRD2; type: cell-based
DRD3 = DRD3 (Homo sapiens, UniProt P35462); assay: β-arrestin recruitment GPCR reporter assay, DRD3; type: cell-based
Chain of DRD3 (P35462 whole entry): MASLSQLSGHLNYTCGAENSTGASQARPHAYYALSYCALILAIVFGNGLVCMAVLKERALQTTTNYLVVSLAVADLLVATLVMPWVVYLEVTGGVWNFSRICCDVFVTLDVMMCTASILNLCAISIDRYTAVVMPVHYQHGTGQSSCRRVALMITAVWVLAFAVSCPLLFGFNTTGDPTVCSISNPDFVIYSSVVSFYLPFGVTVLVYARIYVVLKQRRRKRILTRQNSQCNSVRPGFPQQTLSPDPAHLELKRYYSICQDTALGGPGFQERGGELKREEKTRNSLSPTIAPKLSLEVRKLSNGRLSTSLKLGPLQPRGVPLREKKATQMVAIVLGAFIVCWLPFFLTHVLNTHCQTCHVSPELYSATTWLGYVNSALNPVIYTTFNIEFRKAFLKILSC

GPR132 = target: T1, GPR132 (Homo sapiens, UniProt Q9UNW8); assay: β-arrestin recruitment GPCR reporter assay, GPR132; type: cell-based
T1 sequence (Q9UNW8 1-380): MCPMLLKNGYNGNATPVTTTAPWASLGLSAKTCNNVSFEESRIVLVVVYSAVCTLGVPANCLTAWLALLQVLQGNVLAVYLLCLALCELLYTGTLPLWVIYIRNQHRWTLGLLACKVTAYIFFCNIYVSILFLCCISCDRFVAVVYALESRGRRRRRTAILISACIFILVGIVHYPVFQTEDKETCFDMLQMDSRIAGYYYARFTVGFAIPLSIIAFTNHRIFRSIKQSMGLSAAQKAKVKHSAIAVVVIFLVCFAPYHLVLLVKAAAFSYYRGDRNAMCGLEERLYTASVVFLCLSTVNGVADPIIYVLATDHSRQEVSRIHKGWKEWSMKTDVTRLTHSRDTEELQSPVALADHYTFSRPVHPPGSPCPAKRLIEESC

GPR91 = GPR91 (Homo sapiens, UniProt Q9BXA5); assay: β-arrestin recruitment GPCR reporter assay, GPR91; type: cell-based
Chain of GPR91 (Q9BXA5 whole entry): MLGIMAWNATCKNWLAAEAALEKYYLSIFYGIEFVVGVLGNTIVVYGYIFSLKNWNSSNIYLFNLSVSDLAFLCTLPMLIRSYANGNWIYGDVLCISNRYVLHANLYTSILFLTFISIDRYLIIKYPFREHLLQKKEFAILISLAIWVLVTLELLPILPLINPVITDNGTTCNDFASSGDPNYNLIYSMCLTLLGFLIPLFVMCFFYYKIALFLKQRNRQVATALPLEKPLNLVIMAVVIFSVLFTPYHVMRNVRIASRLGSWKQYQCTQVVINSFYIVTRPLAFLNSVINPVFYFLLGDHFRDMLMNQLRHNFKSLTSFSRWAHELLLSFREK

DRD5 = DRD5 (Homo sapiens, UniProt P21918); assay: β-arrestin recruitment GPCR reporter assay, DRD5; type: cell-based; conditions: arrestin recruitment reporter assay
Chain of DRD5 (P21918 whole entry): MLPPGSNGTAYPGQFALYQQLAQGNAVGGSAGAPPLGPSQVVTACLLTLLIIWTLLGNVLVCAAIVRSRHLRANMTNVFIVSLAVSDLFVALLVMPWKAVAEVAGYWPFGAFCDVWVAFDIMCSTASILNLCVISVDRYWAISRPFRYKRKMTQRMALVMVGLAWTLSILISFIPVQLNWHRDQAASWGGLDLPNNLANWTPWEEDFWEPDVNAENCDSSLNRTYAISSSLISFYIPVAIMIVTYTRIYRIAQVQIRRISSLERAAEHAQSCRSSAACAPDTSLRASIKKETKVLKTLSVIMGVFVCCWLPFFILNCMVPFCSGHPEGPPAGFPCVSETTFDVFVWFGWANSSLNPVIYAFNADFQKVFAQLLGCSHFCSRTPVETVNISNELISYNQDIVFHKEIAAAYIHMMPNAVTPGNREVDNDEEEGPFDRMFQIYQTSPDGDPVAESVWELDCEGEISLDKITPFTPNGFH

CXCR7 = CXCR7 (Homo sapiens, UniProt P25106); assay: β-arrestin recruitment GPCR reporter assay, CXCR7; type: cell-based
Chain of CXCR7 (P25106 whole entry): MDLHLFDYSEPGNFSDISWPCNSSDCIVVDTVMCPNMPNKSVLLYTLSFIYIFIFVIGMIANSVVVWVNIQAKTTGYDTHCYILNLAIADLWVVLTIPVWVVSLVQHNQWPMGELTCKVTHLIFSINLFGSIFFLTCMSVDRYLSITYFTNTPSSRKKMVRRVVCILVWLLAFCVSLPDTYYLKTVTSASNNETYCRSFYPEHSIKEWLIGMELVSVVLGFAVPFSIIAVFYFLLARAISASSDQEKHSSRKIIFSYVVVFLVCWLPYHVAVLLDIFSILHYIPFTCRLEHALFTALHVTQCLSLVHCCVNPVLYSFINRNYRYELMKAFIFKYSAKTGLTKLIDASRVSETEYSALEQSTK

GPCRs = assay: GPCR profiling by arrestin recruitment reporter assay (panel); type: cell-based; conditions: 10 μM
HCT116 cells = assay: Anticancer efficacy in HCT116 cells; type: cell-based, human; conditions: HCT116 cells
DRD2L = DRD2L (Homo sapiens, UniProt P14416); assay: Gaddum/Schild analysis of arrestin recruitment to DRD2L; type: cell-based; conditions: arrestin recruitment / cAMP reporters (FIGS. 5B, 5C, 5F)
Chain of DRD2L (P14416 whole entry): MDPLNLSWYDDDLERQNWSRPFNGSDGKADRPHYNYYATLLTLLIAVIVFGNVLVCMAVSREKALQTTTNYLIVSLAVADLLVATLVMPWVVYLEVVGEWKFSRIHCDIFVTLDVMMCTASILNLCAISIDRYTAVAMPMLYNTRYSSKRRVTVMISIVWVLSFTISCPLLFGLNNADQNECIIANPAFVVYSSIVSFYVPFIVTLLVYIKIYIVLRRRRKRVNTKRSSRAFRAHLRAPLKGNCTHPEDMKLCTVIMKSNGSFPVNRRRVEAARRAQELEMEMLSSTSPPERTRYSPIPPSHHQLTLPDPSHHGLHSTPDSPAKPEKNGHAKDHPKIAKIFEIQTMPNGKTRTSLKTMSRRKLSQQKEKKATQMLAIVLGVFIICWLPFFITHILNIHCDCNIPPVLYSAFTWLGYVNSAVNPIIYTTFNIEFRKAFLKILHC

[7] = Jacob et al. 2014; Wagner et al. 2015; cited from earlier work
[8] = ATCC29213, wild type Staphylococcus aureus (ATCC 29213), read-out: MIC
[9] = Staphylococcus aureus, ATCC29213, ATCC 29213, 24 hours, read-out: MIC90
[10] = Staphylococcus aureus, ATCC29213, ATCC 29213, 24 hours, read-out: MIC95
[11] = Staphylococcus aureus, ATCC29213, ATCC 29213, 24 hours, read-out: MIC99
[12] = Staphylococcus aureus, ATCC29213, ATCC 29213, 24 hours, read-out: MIC, Visual
[13] = ATCC33591, Staphylococcus aureus (ATCC 33591), methicillin resistant, read-out: MIC
[14] = Staphylococcus aureus, ATCC33591, ATCC 33591, 24 hours, read-out: MIC90
[15] = Staphylococcus aureus, ATCC33591, ATCC 33591, 24 hours, read-out: MIC95
[16] = Staphylococcus aureus, ATCC33591, ATCC 33591, 24 hours, read-out: MIC99
[17] = Staphylococcus aureus, ATCC33591, ATCC 33591, 24 hours, read-out: MIC, Visual
[18] = Staphylococcus aureus, ATCC700699, ATCC 700699 (48 hours), read-out: MIC90
[19] = Staphylococcus aureus, ATCC700699, ATCC 700699 (48 hours), read-out: MIC95
[20] = Staphylococcus aureus, ATCC700699, ATCC 700699 (48 hours), read-out: MIC99
[21] = Staphylococcus aureus, ATCC700699, ATCC 700699 (48 hours), read-out: MIC, Visual
[22] = Staphylococcus aureus, ATCC29213, 24 h
[23] = Staphylococcus aureus, ATCC33591, 24 h
[24] = Staphylococcus aureus, ATCC700699, 48 h

For `O=C1C2=C(CCN(Cc3ccccc3)C2)N2CCN=C2N1Cc1cccs1` [ONC203], the “Relative Potency*” value (human cancer cells) was “C (C Indicates a potency decrease of >2-fold of ONC201)” and the “anti-cancer efficacy across tumor types” value [1] was “inactive negative control”.
For `Cc1ccccc1CN1C(=O)C2=C(CCNC2)N2CCN=C12` [ONC207], the “Relative Potency*” value (human cancer cells) was “B (B Indicates potency that is within 2-fold of ONC201)”, the MIC95 ([2]; ATCC 29213, 24 hours) was >100 µg/mL and the MIC99 ([2]; ATCC 29213, 24 hours) was >100 µg/mL. For the same molecule, the “MIC, Visual” value ([2]; ATCC 29213, 24 hours) was >100 µg/mL, the MIC90 ([3]; ATCC 33591, 24 hours) was >100 µg/mL and the MIC95 ([3]; ATCC 33591, 24 hours) was >100 µg/mL. For the same molecule, the MIC99 ([3]; ATCC 33591, 24 hours) was >100 µg/mL, the “MIC, Visual” value ([3]; ATCC 33591, 24 hours) was >100 µg/mL and the MIC90 ([4]; ATCC 700699 (48 hours)) was >100 µg/mL. The MIC95 ([4]; ATCC 700699 (48 hours)) was >100 µg/mL, the MIC99 ([4]; ATCC 700699 (48 hours)) was >100 µg/mL and the “MIC, Visual” value ([4]; ATCC 700699 (48 hours)) was >100 µg/mL.
In the case of `O=C1C2=C(CCN(Cc3ccccc3)C2)N2CCN=C2N1Cc1ccc(F)c(F)c1` [ONC213], the “Relative Potency*” value (human cancer cells) is reported as “A (A Indicates a potency increase of >2-fold of ONC201)”, the “in vitro toxicity to normal cells” value (normal cells) is reported as “reduced compared to ONC212” and the NOAEL [5] is reported as 75 mg/kg. For the same molecule, the “GPCR activity, DRD2” value [6] was “DRD2/3 inhibitor; also recorded: more than ONC201 but less than ONC206”, the “GPCR activity, DRD3” value (DRD3) was “DRD2/3 inhibitor; also recorded: more than ONC201 but less than ONC206” and the “GPCR activity, GPR132” value (GPR132) was “less than ONC212; also recorded: GPR132/91 agonist”. For the same molecule, the “GPCR activity, GPR91” value (GPR91) was “GPR132/91 agonist”, the MIC [2, 8] was 25 µg/mL (≈ 61.2 µM) and the MIC90 [2, 9] was 12.5 µg/mL (≈ 30.6 µM). For the same molecule, the MIC [2, 10] was 12.5 µg/mL (≈ 30.6 µM), the MIC99 [2, 11] was 25 µg/mL (≈ 61.2 µM) and the MIC [2, 12] was 25 µg/mL (≈ 61.2 µM). The MIC [3, 13] was 3.13 µg/mL (≈ 7.66 µM), the MIC90 [3, 14] was 3.13 µg/mL (≈ 7.66 µM) and the MIC [3, 15] was 6.25 µg/mL (≈ 15.3 µM). The MIC99 [3, 16] was 100 µg/mL (≈ 245 µM), the MIC [3, 17] was 3.12 µg/mL (≈ 7.65 µM) and the MIC90 [4, 18] was 6.25 µg/mL (≈ 15.3 µM). It also gave an MIC [4, 19] of 12.5 µg/mL (≈ 30.6 µM), an MIC99 [4, 20] of 12.5 µg/mL (≈ 30.6 µM) and an MIC [4, 21] of 12.5 µg/mL (≈ 30.6 µM).
With `Cc1csc(CN2CCC3=C(C2)C(=O)N(Cc2ccc(C(F)(F)F)cc2)C2=NCCN23)n1` [ONC232] the “Relative Potency*” value (human cancer cells) was “B (B Indicates potency that is within 2-fold of ONC201)”.
With `O=C1C2=C(CCN(Cc3cnccn3)C2)N2CCN=C2N1Cc1ccc(C(F)(F)F)cc1` [ONC233] the “Relative Potency*” value (human cancer cells) was “B (B Indicates potency that is within 2-fold of ONC201)”.
In the case of `O=C1C2=C(CCN(Cc3ccc(Cl)c(Cl)c3)C2)N2CCN=C2N1Cc1ccc(C(F)(F)F)cc1` [ONC234], the “Relative Potency*” value (human cancer cells) is reported as “A (A Indicates a potency increase of >2-fold of ONC201)”, the “GPCR activity, DRD2” value [6] is reported as “antagonist activity” and the “GPCR activity, DRD5” value (DRD5) is reported as “antagonist activity”. The “GPCR activity, CXCR7” value (CXCR7) was “CXCR7 agonist activity” and the “GPCR profile / selectivity” value (GPCRs) was “broad spectrum and potent GPCR targeting small molecule”.
For `O=C1C2=C(CCN(Cc3ccsc3)C2)N2CCN=C2N1Cc1ccc(C(F)(F)F)cc1` [ONC236], the “Relative Potency*” value (human cancer cells) was “A (A Indicates a potency increase of >2-fold of ONC201)”, the completeness of response (HCT116 cells) was “better than ONC201 but not ONC212; also recorded: same as ONC212, and better than ONC201” and the “GPCR activity, GPR132” value (GPR132) was “highly selective GPR132 agonist”.
In the case of `O=C1C2=C(CCN(CC(O)c3ccccc3)C2)N2CCN=C2N1Cc1ccc(C(F)(F)F)cc1` (stereo not shown) [ONC237], the IC50 (human cancer cells; Homo sapiens, cell line not stated, read-out: anticancer efficacy IC50) is reported as 31.2 µM, the “Relative Potency*” value (human cancer cells) is reported as “C (C Indicates a potency decrease of >2-fold of ONC201)” and the “GPCR activity, DRD5” value (DRD5) is reported as “DRD5 antagonist”. For the same molecule, the “GPCR activity, GPR132” value (GPR132) was “GPR132 agonist”.
In the case of `Cc1ccccc1CN1C2=NCCN2C(=O)C2=C1CCN(Cc1ccccc1)C2` [TIC-10], the “antagonism of DRD2L” value (DRD2L) is reported as “did not inhibit”, the “GPCR activity, CXCR7” value (CXCR7) is reported as “CXCR7 agonist” and the MIC [2, 8] is reported as > 100 µg/mL. The MIC90 [2, 9] was > 100 µg/mL, the MIC [2, 10] was > 100 µg/mL and the MIC99 [2, 11] was > 100 µg/mL. For the same molecule, the MIC [2, 12] was > 100 µg/mL, the MIC [3, 13] was > 100 µg/mL and the MIC90 [3, 14] was > 100 µg/mL. For the same molecule, the MIC [3, 15] was > 100 µg/mL, the MIC99 [3, 16] was > 100 µg/mL and the MIC [3, 17] was > 100 µg/mL. The MIC ([4]; ATCC700699, MDR Staphylococcus aureus (ATCC 700699), read-out: MIC) was > 100 µg/mL, the MIC90 [4, 18] was > 100 µg/mL and the MIC [4, 19] was > 100 µg/mL. The MIC99 [4, 20] was > 100 µg/mL, the MIC [4, 21] was > 100 µg/mL and the anti-cancer activity [7] was “lacks anti-cancer activity”.
With `CN[C@H](CC(C)C)C(=O)N[C@H]1C(=O)N[C@@H](CC(N)=O)C(=O)N[C@H]2C(=O)N[C@H]3C(=O)N[C@H](C(=O)N[C@H](C(=O)O)c4cc(O)cc(O)c4-c4cc3ccc4O)[C@H](O)c3ccc(c(Cl)c3)Oc3cc2cc(c3O[C@@H]2O[C@H](CO)[C@@H](O)[C@H](O)[C@H]2O[C@H]2C[C@](C)(N)[C@H](O)[C@H](C)O2)Oc2ccc(cc2Cl)[C@H]1O` [Vancomycin, reference compound] the MIC90 [2, 22] was 3.13 µg/mL (≈ 2.16 µM), the MIC99 [2, 22] was 6.25 µg/mL (≈ 4.31 µM) and the MIC ([2]; Staphylococcus aureus, ATCC29213, 24 h, read-out: MIC95) was 3.13 µg/mL (≈ 2.16 µM). The MIC ([2]; Staphylococcus aureus, ATCC29213, 24 h, read-out: MIC, Visual) was 3.12 µg/mL (≈ 2.16 µM), the MIC90 [3, 23] was 0.39 µg/mL (≈ 0.269 µM) and the MIC99 [3, 23] was 0.78 µg/mL (≈ 0.538 µM). For the same molecule, the MIC ([3]; Staphylococcus aureus, ATCC33591, 24 h, read-out: MIC95) was 0.39 µg/mL (≈ 0.269 µM), the MIC ([3]; Staphylococcus aureus, ATCC33591, 24 h, read-out: MIC, Visual) was 0.391 µg/mL (≈ 0.27 µM) and the MIC90 [4, 24] was 12.5 µg/mL (≈ 8.63 µM). The MIC99 [4, 24] was 25 µg/mL (≈ 17.3 µM), the MIC ([4]; Staphylococcus aureus, ATCC700699, 48 h, read-out: MIC95) was 25 µg/mL (≈ 17.3 µM) and the MIC ([4]; Staphylococcus aureus, ATCC700699, 48 h, read-out: MIC, Visual) was 25 µg/mL (≈ 17.3 µM).
